Columns and labels:
Format in all cases: cell-based
HCT-15 = test: NCI60 5-dose screen, HCT-15; settings: Homo sapiens, colon cancer, Fig 1D, read-out: Log10 GI50 (HCT-15) (converted)
Experimental: (§1) The screening methodology used in the NCI60 Cell 5-Doses screen is described in detail at https://dtp.cancer.gov/discovery_development/nci-60/methodology.htm. Briefly, cells are seeded in 96 well plates at an appropriate density and incubated for 1 day. After 1 day, some of the plates are processed to determine a time zero density. To the remaining plates, compounds are added over a 5-log M concentration range (1 log dilutions from 10^-4M to 10^-8M). Plates are incubated for two additional days, then fixed and stained with sulforhodamine B. Growth inhibition is calculated relative to cells without drug treatment and the time zero control. The GI50 is the concentration of a compound that causes 50% growth inhibition, relative to the no drug control.

MDA-MB-231/ATCC = test: NCI60 5-dose screen, MDA-MB-231/ATCC; settings: Homo sapiens, breast cancer, Fig 1D, read-out: Log10 GI50 (MDA-MB-231/ATCC) (converted)
Experimental: as §1

HOP-92 = test: NCI60 5-dose screen, HOP-92; settings: Homo sapiens, non-small cell lung cancer, Fig 1D, read-out: Log10 GI50 (HOP-92) (converted)
Experimental: as §1

U251 = test: NCI60 5-dose screen, U251; settings: Homo sapiens, U-251; CNS cancer; Fig 1D; read-out: Log10 GI50 (U251) (converted)
Experimental: as §1

LOX IMVI = test: NCI60 5-dose screen, LOX IMVI; settings: Homo sapiens, melanoma, Fig 1D, read-out: Log10 GI50 (LOX IMVI) (converted)
Experimental: as §1

OVCAR-5 = test: NCI60 5-dose screen, OVCAR-5; settings: Homo sapiens, ovarian cancer, Fig 1D, read-out: Log10 GI50 (OVCAR-5) (converted)
Experimental: as §1

KM12 = test: NCI60 5-dose screen, KM12; settings: Homo sapiens, colon cancer, Fig 1D, read-out: Log10 GI50 (KM12) (converted)
Experimental: as §1

OVCAR-8 = test: NCI60 5-dose screen, OVCAR-8; settings: Homo sapiens, ovarian cancer, Fig 1D, read-out: Log10 GI50 (OVCAR-8) (converted)
Experimental: as §1

NCI-H23 = test: NCI60 5-dose screen, NCI-H23; settings: Homo sapiens, non-small cell lung cancer, Fig 1D, read-out: Log10 GI50 (NCI-H23) (converted)
Experimental: as §1

NCI-H460 = test: NCI60 5-dose screen, NCI-H460; settings: Homo sapiens, non-small cell lung cancer, Fig 1D, read-out: Log10 GI50 (NCI-H460) (converted)
Experimental: as §1

M14 = test: NCI60 5-dose screen, M14; settings: Homo sapiens, melanoma, Fig 1D, read-out: Log10 GI50 (M14) (converted)
Experimental: as §1

BC-1 cells = test: 3-day MTS cell viability assay, BC-1; settings: Homo sapiens, BC1, 72 hours, Fig 1C
Experimental: All cancer cell lines (HT-29: colorectal adenocarcinoma, HCT-116: colorectal carcinoma, A549: lung epithelial carcinoma, PC3: prostate adenocarcinoma, Jurkat: acute T-cell leukemia, BC-1: primary effusion lymphoma) and the normal human embryonal lung fibroblast cell line MRC-5 were acquired from the American Type Culture Collection (ATCC). All cell lines were cultured as recommended by the suppliers. Culture media were purchased from Gibco (Thermo Fisher Scientific) and supplemented with 10 to 20% fetal bovine serum (HyClone, GE Healthcare Life Sciences) and 20–25 μg/mL gentamicin (Gibco, Thermo Fisher Scientific). […]
Cell viability in cancer cell lines treated with compound was measured in a 3-day MTS cell proliferation assay using the CellTiter 96 AQueous Non-Radioactive Cell Proliferation Assay reagent (Promega) according to the manufacturer’s instructions. Absorbance was read at 490 nm on a SaFire II microplate reader (Tecan). CC50 values were calculated by fitting the obtained MTS cell viability data in GraphPad Prism using a 4-parameter log–based fit for inhibitors. Apoptosis induction and cell death upon compound treatment in PBMC was measured using the Alexa Fluor 488 Annexin V/Dead Cell Apoptosis Kit (Thermo Fisher Scientific), with readout on a FACSCanto II flow cytometer (BD Biosciences). […] The compounds were evaluated in duplo in two independent experiments.

HT-29 cells = test: Clonogenic assay on HT-29 cells; settings: Homo sapiens, 144 h; HT-29, 6 days of incubation, colonies counted; read-out: IC50 (HT-29 cell proliferation, clonogenic assay)
Experimental: All experiments were performed under standard cell culture conditions at 37°C and 5% CO2. Colorectal adenocarcinoma HT-29 cells were seeded at 300 cells/well in triplicate in six well microtiter plates in RPMI-1640 medium supplemented with 10% fetal bovine serum and 25 μg/ml gentamicin (complete medium). Twenty-four hours later, the compounds were added in complete medium in final concentrations ranging from 10 μM to 0.1 nM. Cells were allowed to grow until they formed colonies for 6 days. The colonies were fixed with 100% methanol, stained with Trypan blue 0.4% in saline and the number of colonies was counted. The number of colonies in the treated wells was normalized to the number obtained in the untreated wells. Three biological independent experiments were performed for each compound.

A549/ATCC = test: NCI60 5-dose screen, A549/ATCC; settings: Homo sapiens, non-small cell lung cancer, Fig 1D, read-out: Log10 GI50 (A549/ATCC) (converted)
Experimental: as §1

Question: `Cc1cc(C)cc(Nc2ccc([N+](=O)[O-])c(NCCN3CCOCC3)n2)c1` [Compound 4AZA2891, 6-(3,5-dimethylanilino)-2-(2-morpholinoethylamino)-3-nitropyridine] was tested. Which GI50 (HCT-15) did it give?
Answer: < 10 nM

Question: And the GI50 (MDA-MB-231/ATCC)?
Answer: 34.7 nM

Question: What about the GI50 (HOP-92) of the same molecule?
Answer: < 10 nM

Question: What about the GI50 (U251) of the same molecule?
Answer: 30.9 nM

Question: And the GI50 (LOX IMVI)?
Answer: 11.5 nM

Question: What about the GI50 (OVCAR-5) of the same molecule?
Answer: 36.3 nM

Question: What about the GI50 (KM12) of the same molecule?
Answer: < 10 nM

Question: And the GI50 (OVCAR-8)?
Answer: 37.2 nM

Question: And the GI50 (NCI-H23)?
Answer: 27.5 nM

Question: What about the GI50 (NCI-H460) of the same molecule?
Answer: 17.4 nM

Question: What about the GI50 (M14) of the same molecule?
Answer: 12 nM

Question: What about the IC50 (BC-1 cells) of the same molecule?
Answer: 8.5 nM

Question: And the IC50 (HT-29 cells)?
Answer: 5.4 nM

Question: What about the GI50 (A549/ATCC) of the same molecule?
Answer: 20 nM

Question: What does the source list for `Cc1ccnc(Nc2ccc([N+](=O)[O-])c(NCCN3CCOCC3)n2)c1` [Compound 4AZA2996, N^6-(4-methylpyridin-2-yl)-N^2-(2-morpholinoethyl)-3-nitropyridine-2,6-diamine]?
Answer: GI50 (HCT-15): < 10 nM; GI50 (MDA-MB-231/ATCC): 38 nM; GI50 (U251): < 10 nM; GI50 (LOX IMVI): < 10 nM; GI50 (KM12): < 10 nM; GI50 (OVCAR-8): 20 nM; GI50 (NCI-H23): 15.5 nM; GI50 (NCI-H460): < 10 nM; GI50 (M14): < 10 nM; IC50 (BC-1 cells): 5.9 nM; IC50 (HT-29 cells): 4 nM; GI50 (A549/ATCC): < 10 nM
